US20250092016A1, “COMPOUNDS AND COMPOSITIONS FOR THE TREATMENT OF CORONAVIRAL RELATED DISEASES” (priority 2021, published 2025)

Target: SARS-CoV-2 main protease (M^pro) (Severe acute respiratory syndrome coronavirus 2, UniProt P0DTD1)
Assay: Rapid-Fire MS Biochemical Assay measuring Mpro activity (5 nM Mpro)
Conditions: Table 1B, Mpro inhibition, 5 μM substrate peptide, 120 min, read-out: Rapid-Fire Assay IC50

SMILES	IC50 [nM]
N#C[C@@H]1CN(c2cc(C(F)(F)F)cnn2)C(=O)N1c1cncc2ccccc12 (single isomer, unassigned) [Compound 30b]	> 1000
COc1cnc(C(F)(F)F)nc1N1C[C@H](C#N)N(c2cncc3ccccc23)C1=O (single isomer, unassigned) [Compound 31a]	20 to 200
COc1cnc(C(F)(F)F)nc1N1C[C@@H](C#N)N(c2cncc3ccccc23)C1=O (single isomer, unassigned) [Compound 31b]	> 1000
N#C[C@H]1CN(c2cnc(C(F)(F)F)cn2)C(=O)N1c1cncc2ccccc12 (single isomer, unassigned) [Compound 32a]	< 20
N#C[C@@H]1CN(c2cnc(C(F)(F)F)cn2)C(=O)N1c1cncc2ccccc12 (single isomer, unassigned) [Compound 32b]	> 1000
N#C[C@H]1CN(c2cccc(Cl)c2)C(=O)N1c1cncc2ccc(C(=O)O)cc12 (single isomer, unassigned) [Compound 33a]	< 20
N#C[C@@H]1CN(c2cccc(Cl)c2)C(=O)N1c1cncc2ccc(C(=O)O)cc12 (single isomer, unassigned) [Compound 33b]	> 1000
CS(=O)(=O)c1ccc2cncc(N3C(=O)N(c4cccc(Cl)c4)C[C@@H]3C#N)c2c1 (single isomer, unassigned) [Compound 37a]	< 20
CS(=O)(=O)c1ccc2cncc(N3C(=O)N(c4cccc(Cl)c4)C[C@H]3C#N)c2c1 (single isomer, unassigned) [Compound 37b]	> 1000
COc1ccc(C(F)(F)F)cc1N1C[C@H](C#N)N(c2cncc3ccc(S(C)(=O)=O)cc23)C1=O (single isomer, unassigned) [Compound 38a]	< 20
COc1ccc(C(F)(F)F)cc1N1C[C@@H](C#N)N(c2cncc3ccc(S(C)(=O)=O)cc23)C1=O (single isomer, unassigned) [Compound 38b]	> 1000
N#Cc1ccc2cncc(N3C(=O)N(c4cccc(Cl)c4)C[C@@H]3C#N)c2c1 (single isomer, unassigned) [Compound 39a]	< 20
N#Cc1ccc2cncc(N3C(=O)N(c4cccc(Cl)c4)C[C@H]3C#N)c2c1 (single isomer, unassigned) [Compound 39b]	> 1000
C[C@]1(C#N)CN(c2cccc(Cl)c2)C(=O)N1c1cncc2ccccc12 (single isomer, unassigned) [Compound 40a]	200 to 1000
C[C@@]1(C#N)CN(c2cccc(Cl)c2)C(=O)N1c1cncc2ccccc12 (single isomer, unassigned) [Compound 40b]	> 1000
N#C[C@H]1CN(c2ccc(Cl)cn2)C(=O)N1c1cncc2ccccc12 (single isomer, unassigned) [Compound 41a]	< 20
N#C[C@@H]1CN(c2ccc(Cl)cn2)C(=O)N1c1cncc2ccccc12 (single isomer, unassigned) [Compound 41b]	200 to 1000
N#C[C@H]1CN(c2ncc(C(F)(F)F)cn2)C(=O)N1c1cncc2ccccc12 (single isomer, unassigned) [Compound 42a]	< 20
N#C[C@@H]1CN(c2ncc(C(F)(F)F)cn2)C(=O)N1c1cncc2ccccc12 (single isomer, unassigned) [Compound 42b]	> 1000
C[C@H]1[C@H](C#N)N(c2cncc3ccccc23)C(=O)N1c1cccc(Cl)c1 (single isomer, unassigned) [Compound 43a]	< 20
C[C@H]1[C@@H](C#N)N(c2cncc3ccccc23)C(=O)N1c1cccc(Cl)c1 (single isomer, unassigned) [Compound 43b]	200 to 1000
Cc1cc(N2C[C@H](C#N)N(c3cncc4ccccc34)C2=O)ccn1 (single isomer, unassigned) [Compound 44a]	20 to 200
Cc1cc(N2C[C@@H](C#N)N(c3cncc4ccccc34)C2=O)ccn1 (single isomer, unassigned) [Compound 44b]	> 1000
N#C[C@H]1CN([C@@H]2CCN(CCO)C2)C(=O)N1c1cncc2ccccc12 (single isomer, unassigned) [Compound 46a]	> 1000
